In ChEMBL document CHEMBL1157563 (J Med Chem, 2010):
Values belong to the molecule of their own block, whether it stands above or below them. Active and inactive are the calls of the source. No cut-off for these calls is given here.

Key:
Histone deacetylase = assay type: cell-based, Homo sapiens; details: hela
Description: Inhibition of HDAC in human HeLa cell nuclear extract

[1] = target: Receptor tyrosine-protein kinase erbB-2 (Homo sapiens, UniProt P04626)
SK-BR-3 = experiment: cells; assay type: functional, cell-based; details: Homo sapiens
Description: Antiproliferative activity against human SK-BR-3 cells after hrs by ATP content assay

HepG2 [2] = experiment: Antiproliferative activity against human HepG2 cells after hrs by ATP content assay; assay type: functional, cell-based
MDA-MB-231 = experiment: Antiproliferative activity against human MDA-MB-231 cells after hrs by ATP content assay; assay type: functional, cell-based
HepG2 [3] = experiment: Antitumor activity against human HepG2 cells xenografted in nude CD1 mouse assessed as tumor regression at 120 mg/kg, iv daily relative to control; assay type: functional
A549 = experiment: Antitumor activity against human A549 cells xenografted in nude CD1 mouse at 120 mg/kg, iv daily relative to control; assay type: functional
[4] = target: Tyrosine-protein kinase Lyn (Homo sapiens, UniProt P07948); experiment: Inhibition of Lyn
NCI-H358 [5] = experiment: cells; assay type: functional, cell-based; details: Homo sapiens
Description: Antiproliferative activity against human NCI-H358 cells after hrs by ATP content assay

BXPC-3 = experiment: cells; assay type: functional, cell-based; details: Homo sapiens
Description: Antiproliferative activity against human BxPC3 cells after hrs by ATP content assay

[6] = target: NAD-dependent protein deacetylase sirtuin-3, mitochondrial (Homo sapiens) (UniProt Q9NTG7); experiment: Inhibition of human SIRT3 expressed in Escherichia coli
[7] = target: Fibroblast growth factor receptor 2 (Homo sapiens, UniProt P21802); experiment: Inhibition of FGFR2
[8] = target: Vascular endothelial growth factor receptor 2 (Homo sapiens, UniProt P35968); experiment: Inhibition of KDR
HCT-116 = experiment: Antitumor activity against human HCT116 cells xenografted in nude CD1 mouse at 60 mg/kg, iv dosed daily on 5-2-5 (on-off-on) schedule relative to control; assay type: functional
NCI-H460 = experiment: cells; assay type: functional, cell-based; details: Homo sapiens
Description: Antiproliferative activity against human H460 cells after hrs by ATP content assay

[9] = target: NAD-dependent protein deacetylase sirtuin-2 (Homo sapiens) (UniProt Q8IXJ6); experiment: Inhibition of human SIRT2 expressed in Escherichia coli
[10] = target: Proto-oncogene tyrosine-protein kinase Src (Homo sapiens, UniProt P12931); experiment: Inhibition of Src
cells [11] = assay type: functional, cell-based; details: Homo sapiens, HCC827
Description: Antiproliferative activity against human HCC827 cells after hrs by ATP content assay

CAPAN-1 = experiment: cells; assay type: functional, cell-based; details: Homo sapiens
Description: Antiproliferative activity against human Capan1 cells after hrs by ATP content assay

NCI-H358 [12] = experiment: Antitumor activity against human NCI-H358 cells xenografted in nude CD1 mouse at 60 mg/kg, iv dosed daily on 7-6-5 (on-off-on) schedule relative to control; assay type: functional
cells [13] = assay type: functional, cell-based, Hep 3B2; details: Homo sapiens, Hep3B
Description: Antiproliferative activity against human Hep3B2 cells after hrs by ATP content assay

MCF7 = experiment: cells; assay type: functional, cell-based; details: Homo sapiens
Description: Antiproliferative activity against human MCF7 cells after hrs by ATP content assay

[14] = target: NAD-dependent protein deacetylase sirtuin-1 (Homo sapiens) (UniProt Q96EB6); experiment: Inhibition of human SIRT1 expressed in Escherichia coli
NCI-H358 [15] = experiment: Antitumor activity against human NCI-H358 cells xenografted in nude CD1 mouse at 30 mg/kg, iv dosed daily on 7-6-5 (on-off-on) schedule relative to control; assay type: functional
HPAC = experiment: Antitumor activity against human HPAC cells xenografted in nude CD1 mouse at 120 mg/kg, iv daily relative to control; assay type: functional
[16] = target: Tyrosine-protein kinase Lck (Homo sapiens, UniProt P06239); experiment: Inhibition of Lck
SK-HEP1 = experiment: cells; assay type: functional, cell-based; details: Homo sapiens
Description: Antiproliferative activity against human SKHEP1 cells after hrs by ATP content assay

CAL-27 = experiment: Antitumor activity against human CAL27 cells xenografted in nude CD1 mouse assessed as tumor regression at 120 mg/kg, iv daily relative to control; assay type: functional
MDA-MB-468 [17] = experiment: Antitumor activity against human MDA-MB-468 cells xenografted in nude CD1 mouse assessed as tumor regression at 120 mg/kg, iv daily relative to control; assay type: functional
NCI-H358 [18] = experiment: Antitumor activity against human NCI-H358 cells xenografted in nude CD1 mouse at 15 mg/kg, iv dosed daily on 7-6-5 (on-off-on) schedule relative to control; assay type: functional
[19] = target: Receptor-type tyrosine-protein kinase FLT3 (Homo sapiens, UniProt P36888); experiment: Inhibition of Flt3
[20] = target: Epidermal growth factor receptor (Homo sapiens, UniProt P00533)
MDA-MB-468 [21] = experiment: Antitumor activity against human MDA-MB-468 cells xenografted in nude CD1 mouse at 75 mg/kg, po bid relative to control
HepG2 [22] = experiment: Antitumor activity against human HepG2 cells xenografted in nude CD1 mouse at 72 mg/kg, iv daily relative to control; assay type: functional
HepG2 [23] = experiment: Antitumor activity against human HepG2 cells xenografted in nude CD1 mouse at 25 mg/kg, po daily relative to control; assay type: functional

Sequence of Epidermal growth factor receptor (P00533 whole entry): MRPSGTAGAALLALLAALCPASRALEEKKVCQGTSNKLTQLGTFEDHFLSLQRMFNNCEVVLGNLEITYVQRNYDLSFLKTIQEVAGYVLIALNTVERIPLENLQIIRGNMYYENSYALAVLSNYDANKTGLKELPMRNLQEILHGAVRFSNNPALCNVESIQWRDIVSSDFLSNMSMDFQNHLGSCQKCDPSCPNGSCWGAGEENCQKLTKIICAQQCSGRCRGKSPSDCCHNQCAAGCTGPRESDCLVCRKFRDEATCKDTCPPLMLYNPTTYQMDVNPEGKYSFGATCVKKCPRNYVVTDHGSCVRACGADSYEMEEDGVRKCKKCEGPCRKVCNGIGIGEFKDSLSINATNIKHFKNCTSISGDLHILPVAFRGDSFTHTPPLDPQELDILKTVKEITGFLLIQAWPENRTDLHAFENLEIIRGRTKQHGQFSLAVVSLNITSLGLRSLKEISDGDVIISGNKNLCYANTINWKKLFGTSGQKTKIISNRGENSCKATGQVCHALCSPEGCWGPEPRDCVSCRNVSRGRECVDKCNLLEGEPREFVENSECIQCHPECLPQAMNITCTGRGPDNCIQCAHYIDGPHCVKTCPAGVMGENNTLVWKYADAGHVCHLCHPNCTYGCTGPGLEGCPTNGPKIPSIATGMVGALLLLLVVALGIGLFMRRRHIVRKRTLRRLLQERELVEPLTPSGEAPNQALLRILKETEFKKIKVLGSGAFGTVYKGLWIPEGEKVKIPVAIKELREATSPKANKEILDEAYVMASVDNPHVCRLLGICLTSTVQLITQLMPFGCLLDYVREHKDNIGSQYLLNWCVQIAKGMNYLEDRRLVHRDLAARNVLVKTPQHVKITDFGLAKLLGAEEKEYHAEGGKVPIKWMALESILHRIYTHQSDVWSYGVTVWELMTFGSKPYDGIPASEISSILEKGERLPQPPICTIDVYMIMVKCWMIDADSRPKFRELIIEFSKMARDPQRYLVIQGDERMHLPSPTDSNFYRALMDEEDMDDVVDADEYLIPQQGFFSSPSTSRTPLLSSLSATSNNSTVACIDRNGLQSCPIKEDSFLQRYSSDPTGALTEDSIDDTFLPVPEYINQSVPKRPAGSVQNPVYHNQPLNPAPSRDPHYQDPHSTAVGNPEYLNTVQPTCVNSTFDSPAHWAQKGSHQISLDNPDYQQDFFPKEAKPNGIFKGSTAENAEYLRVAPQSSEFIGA
Sequence of Receptor tyrosine-protein kinase erbB-2 (P04626 whole entry): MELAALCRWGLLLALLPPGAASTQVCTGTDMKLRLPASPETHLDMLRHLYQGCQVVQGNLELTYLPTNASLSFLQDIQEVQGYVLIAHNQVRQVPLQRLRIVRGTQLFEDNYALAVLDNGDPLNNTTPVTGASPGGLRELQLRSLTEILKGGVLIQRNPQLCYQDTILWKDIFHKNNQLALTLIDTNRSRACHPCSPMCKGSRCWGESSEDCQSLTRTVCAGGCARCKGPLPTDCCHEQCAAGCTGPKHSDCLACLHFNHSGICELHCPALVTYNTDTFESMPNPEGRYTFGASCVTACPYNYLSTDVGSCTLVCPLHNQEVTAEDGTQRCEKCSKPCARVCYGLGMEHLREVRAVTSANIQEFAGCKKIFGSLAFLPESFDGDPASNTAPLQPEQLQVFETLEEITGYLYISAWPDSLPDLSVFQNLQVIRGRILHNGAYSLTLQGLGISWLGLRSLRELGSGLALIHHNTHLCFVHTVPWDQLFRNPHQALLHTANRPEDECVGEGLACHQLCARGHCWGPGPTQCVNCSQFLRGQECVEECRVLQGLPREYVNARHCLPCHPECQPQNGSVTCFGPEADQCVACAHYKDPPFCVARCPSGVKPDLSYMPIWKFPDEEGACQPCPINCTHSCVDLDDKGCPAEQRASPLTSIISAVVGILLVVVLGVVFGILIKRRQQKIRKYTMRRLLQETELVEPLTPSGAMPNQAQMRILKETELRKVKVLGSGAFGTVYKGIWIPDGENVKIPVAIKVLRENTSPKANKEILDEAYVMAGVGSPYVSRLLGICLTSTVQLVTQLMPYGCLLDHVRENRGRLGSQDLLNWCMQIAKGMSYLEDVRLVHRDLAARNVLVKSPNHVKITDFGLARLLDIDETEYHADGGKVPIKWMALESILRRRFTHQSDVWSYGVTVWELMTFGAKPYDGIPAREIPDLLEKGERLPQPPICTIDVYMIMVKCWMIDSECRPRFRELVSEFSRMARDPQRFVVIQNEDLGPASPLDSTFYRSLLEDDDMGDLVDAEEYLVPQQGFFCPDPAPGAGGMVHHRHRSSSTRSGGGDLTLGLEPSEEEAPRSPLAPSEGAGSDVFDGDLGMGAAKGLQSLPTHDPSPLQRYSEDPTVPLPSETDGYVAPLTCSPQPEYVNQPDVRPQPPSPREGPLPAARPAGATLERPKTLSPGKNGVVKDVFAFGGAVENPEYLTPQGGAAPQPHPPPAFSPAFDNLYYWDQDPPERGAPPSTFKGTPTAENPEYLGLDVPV
Sequence of NAD-dependent protein deacetylase sirtuin-3, mitochondrial (Homo sapiens) (Q9NTG7 whole entry): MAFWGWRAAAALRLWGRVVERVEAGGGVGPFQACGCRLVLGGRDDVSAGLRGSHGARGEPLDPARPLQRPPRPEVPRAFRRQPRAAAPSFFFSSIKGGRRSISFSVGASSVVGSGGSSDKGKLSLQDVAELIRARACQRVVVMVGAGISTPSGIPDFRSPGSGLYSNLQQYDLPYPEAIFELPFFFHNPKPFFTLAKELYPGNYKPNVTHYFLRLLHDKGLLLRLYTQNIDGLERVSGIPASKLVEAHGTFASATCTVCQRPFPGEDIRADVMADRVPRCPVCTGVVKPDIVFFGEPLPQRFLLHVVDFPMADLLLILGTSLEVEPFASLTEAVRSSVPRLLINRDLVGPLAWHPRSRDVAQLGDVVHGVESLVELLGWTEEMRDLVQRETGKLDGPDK
Sequence of Vascular endothelial growth factor receptor 2 (P35968 whole entry): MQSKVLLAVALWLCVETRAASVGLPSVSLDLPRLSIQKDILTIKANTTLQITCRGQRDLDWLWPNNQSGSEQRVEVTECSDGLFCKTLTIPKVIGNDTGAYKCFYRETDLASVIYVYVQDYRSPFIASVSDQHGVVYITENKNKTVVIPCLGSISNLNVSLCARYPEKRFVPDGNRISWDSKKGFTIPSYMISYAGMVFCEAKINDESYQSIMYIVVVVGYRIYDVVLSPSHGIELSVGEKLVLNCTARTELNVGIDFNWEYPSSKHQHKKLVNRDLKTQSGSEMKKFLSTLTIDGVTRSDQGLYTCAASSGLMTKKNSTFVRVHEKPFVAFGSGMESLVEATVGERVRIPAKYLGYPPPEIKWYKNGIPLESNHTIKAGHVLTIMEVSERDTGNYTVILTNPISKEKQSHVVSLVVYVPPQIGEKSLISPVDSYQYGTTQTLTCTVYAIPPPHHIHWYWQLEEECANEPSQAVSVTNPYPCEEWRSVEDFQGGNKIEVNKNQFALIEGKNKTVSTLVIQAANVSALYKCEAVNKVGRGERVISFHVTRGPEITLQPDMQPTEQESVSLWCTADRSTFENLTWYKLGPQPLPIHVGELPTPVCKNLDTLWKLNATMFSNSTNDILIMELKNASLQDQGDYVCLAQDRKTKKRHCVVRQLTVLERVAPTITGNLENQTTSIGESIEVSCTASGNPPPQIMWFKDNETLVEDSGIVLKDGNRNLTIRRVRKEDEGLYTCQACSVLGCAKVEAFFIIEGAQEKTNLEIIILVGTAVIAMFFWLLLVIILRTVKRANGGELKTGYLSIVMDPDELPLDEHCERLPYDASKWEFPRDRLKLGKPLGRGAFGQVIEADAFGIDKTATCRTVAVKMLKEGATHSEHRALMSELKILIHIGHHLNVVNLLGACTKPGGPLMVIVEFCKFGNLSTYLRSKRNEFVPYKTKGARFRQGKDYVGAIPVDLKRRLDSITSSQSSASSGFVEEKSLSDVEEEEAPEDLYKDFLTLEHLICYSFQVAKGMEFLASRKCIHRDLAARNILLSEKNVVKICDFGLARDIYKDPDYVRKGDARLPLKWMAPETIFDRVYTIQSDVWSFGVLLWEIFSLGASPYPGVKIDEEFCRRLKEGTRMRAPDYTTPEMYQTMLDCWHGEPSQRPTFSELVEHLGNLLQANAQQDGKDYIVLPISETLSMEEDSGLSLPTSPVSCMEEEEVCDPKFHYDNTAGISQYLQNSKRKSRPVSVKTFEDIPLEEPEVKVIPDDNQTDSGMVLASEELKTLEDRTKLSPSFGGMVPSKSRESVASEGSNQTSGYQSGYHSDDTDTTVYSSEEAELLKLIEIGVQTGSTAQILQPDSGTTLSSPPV
Sequence of NAD-dependent protein deacetylase sirtuin-1 (Homo sapiens) (Q96EB6 whole entry): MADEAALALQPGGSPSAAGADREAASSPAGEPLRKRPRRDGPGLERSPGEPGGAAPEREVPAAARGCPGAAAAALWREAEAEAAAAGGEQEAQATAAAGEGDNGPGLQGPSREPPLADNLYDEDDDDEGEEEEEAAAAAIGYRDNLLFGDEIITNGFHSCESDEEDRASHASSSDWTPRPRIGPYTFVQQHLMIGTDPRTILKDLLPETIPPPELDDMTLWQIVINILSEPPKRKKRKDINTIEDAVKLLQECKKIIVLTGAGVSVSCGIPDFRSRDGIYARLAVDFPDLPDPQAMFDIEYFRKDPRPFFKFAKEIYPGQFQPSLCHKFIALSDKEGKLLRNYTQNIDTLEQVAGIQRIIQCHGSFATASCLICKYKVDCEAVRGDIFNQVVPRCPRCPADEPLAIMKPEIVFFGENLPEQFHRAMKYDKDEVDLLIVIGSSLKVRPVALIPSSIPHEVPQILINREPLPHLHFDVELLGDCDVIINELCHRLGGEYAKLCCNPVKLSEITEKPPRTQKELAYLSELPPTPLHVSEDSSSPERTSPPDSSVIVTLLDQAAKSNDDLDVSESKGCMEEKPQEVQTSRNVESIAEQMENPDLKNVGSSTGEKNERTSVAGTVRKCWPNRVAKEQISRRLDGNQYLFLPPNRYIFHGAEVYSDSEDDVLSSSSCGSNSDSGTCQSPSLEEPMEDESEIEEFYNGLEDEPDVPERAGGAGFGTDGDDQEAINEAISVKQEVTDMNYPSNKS

Compound: COc1cc2ncnc(N[C@@H](C)c3ccccc3)c2cc1OCCCCCCC(=O)NO
IC50 (Histone deacetylase): 25.7 nM | IC50 [1]: > 2000 nM

Compound: C#Cc1cccc(Nc2ncnc3cc(OC)c(OCCCCCCC(=O)NO)cc23)c1 [CUDC-101]
IC50 (SK-BR-3): 40 nM | IC50 (HepG2 [2]): 130 nM | IC50 (MDA-MB-231): 100 nM | Activity (HepG2 [3]): -21.3% | Activity (A549): 35.9% | IC50 [4]: 840 nM | IC50 (NCI-H358 [5]): 400 nM | IC50 (BXPC-3): 270 nM | Activity [6]: inactive | IC50 [7]: 3.43 µM | IC50 [8]: 849 nM | Activity (HCT-116): 35.3% | IC50 (NCI-H460): 700 nM | Activity [9]: inactive | IC50 [10]: 11 µM | IC50 (cells [11]): 600 nM | IC50 (CAPAN-1): 800 nM | Activity (NCI-H358 [12]): 6.5% | IC50 (cells [13]): 230 nM | IC50 (MCF7): 550 nM | Activity [14]: inactive | Activity (NCI-H358 [15]): 10.3% | Activity (HPAC): 35.1% | IC50 [16]: 5.91 µM | IC50 (SK-HEP1): 220 nM | Activity (CAL-27): -36.5% | Activity (MDA-MB-468 [17]): -13.7% | Activity (NCI-H358 [18]): 41.9% | IC50 [19]: 1500 nM

Compound: COc1cc2ncnc(Nc3ccc(OCc4cccc(F)c4)c(Cl)c3)c2cc1OCCCCCCC(=O)NO
IC50 [20]: 9.08 nM | IC50 (Histone deacetylase): 58.1 nM | IC50 [1]: 10.1 nM

Compound: COc1cc2ncnc(NCc3ccccc3)c2cc1OCCCCCCC(=O)NO
IC50 [20]: 99.4 nM | IC50 (Histone deacetylase): 4.2 nM | IC50 [1]: 225 nM

Compound: COc1cc2ncnc(NC(C)c3ccc(Cl)cc3)c2cc1OCCCCCCC(=O)NO (single isomer, unassigned)
IC50 [20]: 614 nM | IC50 (Histone deacetylase): 188 nM | IC50 [1]: 557 nM

Compound: CS(=O)(=O)CCNCc1ccc(-c2ccc3ncnc(Nc4ccc(OCc5cccc(F)c5)c(Cl)c4)c3c2)o1 [LAPATINIB]
IC50 (SK-BR-3): 40 nM | IC50 (HepG2 [2]): 6270 nM | IC50 (MDA-MB-231): 5400 nM | Activity (MDA-MB-468 [21]): 51% | IC50 (cells [13]): 5490 nM | IC50 (MCF7): 6600 nM | IC50 (SK-HEP1): 5300 nM

Compound: COc1cc2ncnc(NC(C)c3ccc(F)cc3)c2cc1OCCCCCCC(=O)NO (single isomer, unassigned)
IC50 [20]: 126 nM | IC50 (Histone deacetylase): 165.3 nM | IC50 [1]: 175 nM

Compound: O=C(CCCCCCOc1ccc2ncnc(Nc3ccc(F)c(Cl)c3)c2c1)NO
IC50 [20]: 84.2 nM | IC50 (Histone deacetylase): 4.4 nM | IC50 [1]: 43.5 nM

Compound: COc1cc2ncnc(N[C@H](C)c3ccccc3)c2cc1OCCCCCCC(=O)NO
IC50 (Histone deacetylase): 98.4 nM | IC50 [1]: 27.8 nM

Compound: C#Cc1cccc(Nc2ncnc3cc(OCCCCCCC(=O)NO)c(OC)cc23)c1
IC50 [20]: 8.2 nM | IC50 (Histone deacetylase): 34.1 nM | IC50 [1]: 51.6 nM

Compound: C#Cc1cccc(Nc2ncnc3cc(OC)c(OCCCCC(=O)NO)cc23)c1
IC50 (Histone deacetylase): 421 nM | IC50 [1]: 38.4 nM

Compound: O=C(CCCCCCC(=O)Nc1ccccc1)NO [VORINOSTAT]
IC50 (HepG2 [2]): 1660 nM | IC50 (MDA-MB-231): 2110 nM | Activity (HepG2 [22]): 26%

Compound: C#Cc1cc(Nc2ncnc3cc(OC)c(OCCCCCCC(=O)NO)cc23)ccc1F
IC50 [20]: 28.8 nM | IC50 (Histone deacetylase): 3.4 nM | IC50 [1]: 76.5 nM

Compound: COc1cc2ncnc(NCc3ccc(F)cc3)c2cc1OCCCCCCC(=O)NO
IC50 (Histone deacetylase): 5.6 nM | IC50 [1]: 295 nM

Compound: COc1cc2ncnc(Nc3ccc(F)c(Cl)c3)c2cc1OCCC(=O)NO
IC50 [20]: 7.1 nM | IC50 (Histone deacetylase): 40900 nM | IC50 [1]: 10.6 nM

Compound: C#Cc1cccc(Nc2ncnc3cc(OCCOC)c(OCCOC)cc23)c1 [ERLOTINIB]
Activity (HepG2 [23]): 50.8%

Compound: COc1cc2ncnc(NCc3ccc(Cl)c(F)c3)c2cc1OCCCCCCC(=O)NO
IC50 [20]: 72 nM | IC50 (Histone deacetylase): 11.3 nM | IC50 [1]: 478 nM

Compound: C#Cc1cccc(Nc2ncnc3cc(OC)c(OCCCCCC(=O)NO)cc23)c1
IC50 [20]: 4.6 nM | IC50 (Histone deacetylase): 13.2 nM | IC50 [1]: 38.2 nM

More lines, now with the values ahead:

IC50 [20]: 7 nM | IC50 (Histone deacetylase): 66.6 nM | IC50 [1]: 71.2 nM
Compound: COc1cc2c(Nc3ccc(F)c(Cl)c3)ncnc2cc1OCCCCCCC(=O)NO

IC50 [20]: 7.8 nM | IC50 (Histone deacetylase): > 100000 nM | IC50 [1]: 12.4 nM
Compound: COc1cc2ncnc(Nc3ccc(F)c(Cl)c3)c2cc1OCCCC(=O)NO

IC50 (SK-BR-3): 170 nM | IC50 (HepG2 [2]): 290 nM | IC50 (MDA-MB-231): 370 nM | IC50 (Histone deacetylase): 6.5 nM | IC50 (NCI-H358 [5]): 710 nM | IC50 (BXPC-3): 380 nM | IC50 (NCI-H460): 900 nM | IC50 (cells [11]): 930 nM | IC50 (CAPAN-1): 1730 nM | IC50 (cells [13]): 600 nM | IC50 (MCF7): 1100 nM | IC50 [1]: 19 nM | IC50 (SK-HEP1): 330 nM
Compound: COc1cc2ncnc(Nc3ccc(F)c(Cl)c3)c2cc1OCCCCCCC(=O)NO

IC50 [20]: 3.4 nM | IC50 (Histone deacetylase): 31 nM | IC50 [1]: 20 nM
Compound: COc1cc2ncnc(Nc3ccc(F)c(Cl)c3)c2cc1OCCCCCC(=O)NO

IC50 [20]: 10.4 nM | IC50 (Histone deacetylase): 8.4 nM | IC50 [1]: 24 nM
Compound: COCCOc1cc2ncnc(Nc3ccc(F)c(Cl)c3)c2cc1OCCCCCCC(=O)NO

IC50 [20]: 1.99 nM | IC50 (Histone deacetylase): 39.6 nM | IC50 [1]: 24.2 nM
Compound: COc1cc2ncnc(Nc3ccc(F)c(Cl)c3)c2cc1SCCCCCCC(=O)NO

IC50 [20]: 2.1 nM | IC50 (Histone deacetylase): 15.3 nM | IC50 [1]: 20.1 nM
Compound: COc1cc2ncnc(Nc3ccc(F)c(Cl)c3)c2cc1NC(=O)CCCCCCC(=O)NO

IC50 [20]: 9.4 nM | IC50 (Histone deacetylase): 551 nM | IC50 [1]: 15 nM
Compound: COc1cc2ncnc(Nc3ccc(F)c(Cl)c3)c2cc1OCCCCC(=O)NO

IC50 [20]: 15.4 nM | IC50 (Histone deacetylase): 121.7 nM | IC50 [1]: > 2000 nM
Compound: COc1cc2ncnc(Nc3ccc(F)c(Cl)c3)c2cc1S(=O)(=O)CCCCCCC(=O)NO
